Test results taken from patent publication US6197788A, “(-)-mefloquine to block puringergic receptors and to treat movement or neurodegenerative disorders” (Vernalis Research Limited, priority 1997, dated 2001).
Read-outs that look alike come from different tables or passages of the source. Values belong to the molecule of their own block, whether it stands above or below them.

Key:
[1] = tested on: mouse striatal and frontal cortex neurochemistry; details: for dopamine or 5-HT neurochemistry and transmitter metabolites: (+)- versus (-)-enantiomer
[2] = biological target: bovine striatal adenosine receptors; test: Displacement of [3H]-NECA (non-selective P1 ligand) binding to striatal membranes
[3] = human, in vivo; cited from earlier work
[4] = tested on: haloperidol-induced catalepsy; test: Haloperidol-induced catalepsy in the rat; details: 0.1-10 mg/kg p.o. 6 h prior to testing; haloperidol 0.2 mg/kg i.p.
[5] = biological target: human recombinant (HEK-293) adenosine A3 receptor; details: read-out: Ki adenosine A3; cited from earlier work
[6] = biological target: human recombinant (HEK-293) adenosine A2A receptor; details: read-out: Ki adenosine A2A, cited from earlier work
catalepsy = details: cited from earlier work
adenosine A1 receptor = details: read-out: Ki adenosine A1, cited from earlier work
[7] = tested on: haloperidol-induced catalepsy; details: literature; cited from earlier work
Parkinson's disease = details: 150 mg/day slow release oral, up to 12 weeks, cited from earlier work
[8] = 150 mg/day slow release oral, after one week; 10080 min; cited from earlier work

Structure (SMILES): O[C@H](c1cc(C(F)(F)F)nc2c(C(F)(F)F)cccc12)[C@@H]1CCCCN1 [(+) enantiomer, (+)-(11R,2'S)-α-2-piperidinyl-2,8-bis(trifluoromethyl)-4-quinolinemethanol]
frontal cortex acetylcholine ([1]; 100 mg/kg p.o., 24 h): unaffected
dopamine or 5-HT neurochemistry and transmitter metabolites ([1]; 100 mg/kg p.o., 24 h): No significant difference
Ki [2]: 38000 nM

Structure (SMILES): O[C@@H](c1cc(C(F)(F)F)nc2c(C(F)(F)F)cccc12)[C@H]1CCCCN1 [(-) enantiomer, (-)-(11S,2'R)-α-2-piperidinyl-2,8-bis(trifluoromethyl)-4-quinolinemethanol]
frontal cortex acetylcholine ([1]; 100 mg/kg p.o., 24 h): unaffected
striatal acetylcholine content, (-)- versus (+)-enantiomer ([1]; 100 mg/kg p.o., 24 h): significantly higher
striatal acetylcholine content, post-hoc Duncan's test between enantiomers ([1]; 100 mg/kg p.o., 24 h): between the (+)-enantiomer and the (-)-enantiomer (p<0.01)
striatal acetylcholine content, post-hoc Duncan's test versus vehicle ([1]; 100 mg/kg p.o., 24 h): significant difference between vehicle and the (-)-enantiomer (p<0.05)
dopamine or 5-HT neurochemistry and transmitter metabolites ([1]; 100 mg/kg p.o., 24 h): No significant difference
acetylcholine release in striatum (suggested by FIG. 6) ([1]; inferred from tissue acetylcholine content): inhibits acetylcholine release in striatum
half life [3]: 14.4 days
Ki [2]: 83 nM
blocking of haloperidol-induced catalepsy [4]: capable of blocking haloperidol-induced catalepsy

Structure (SMILES): OC[C@H]1O[C@@H](n2cnc3c(NC4CCCCC4)ncnc32)[C@H](O)[C@@H]1O [CHA]
Ki [5]: 7700 nM
Ki [6]: 510 nM

Structure (SMILES): CCCn1c(=O)c2c(nc(/C=C/c3ccc(OC)c(OC)c3)n2C)n(CCC)c1=O [KF17837, (E)-8-(3,4-dimethoxystyryl)-1,3-dipropyl-7-methylxanthine]
anticataleptic effects of a subthreshold dose of L-DOPA plus benserazide (catalepsy; combination): potentiated
catalepsy induced by haloperidol and reserpine (catalepsy; in vivo): reduced
cataleptic responses induced by intracerebroventricular CGS 21680 (catalepsy; oral administration): significantly ameliorated
Ki ([6]; comparative literature data): 8 nM
Ki (adenosine A1 receptor; comparative literature data): 390 nM

Structure (SMILES): CCn1c(=O)c2c(nc(/C=C/c3ccc(OC)c(OC)c3)n2C)n(CC)c1=O [KW-6002]
Ki [6]: 13 nM
Ki (adenosine A1 receptor): 580 nM

Structure (SMILES): N[C@@H](Cc1ccc(O)c(O)c1)C(=O)O [L-DOPA]
blocking of haloperidol-induced catalepsy [7]: block haloperidol-induced catalepsy

Ki [2]: 58 nM
Structure (SMILES): CNC(=O)[C@H]1O[C@@H](n2cnc3c(N)ncnc32)[C@H](O)[C@@H]1O [MECA, 5'-N-methylcarboxamidoadenosine]

Structure (SMILES): Cn1c(=O)c2[nH]cnc2n(C)c1=O [THEOPHYLLINE, theophylline]
mean objective disability scores (Parkinson's disease; 15 patients): significant improvements
patients reporting moderate or marked subjective improvement (Parkinson's disease; of 15 patients): 11
serum theophylline levels [8]: 4.44 mg/L
